Experimental data as given in US20140162942A1, “INHIBITION OF CYP3A DRUG METABOLISM” (priority 2010, published 2014).
Read-outs that look alike come from different tables or passages of the source.

Experiments:
Format in all cases: in vitro ADME
[1] = biological target: T1, CYP2B6 (Homo sapiens, UniProt P20813); assay: CYP2B6 inhibition, bupropion hydroxylation in human liver microsomes; conditions: for Potential for Time-Dep. Inhibition: comparison with and without 30-minute pre-incubation; for inhibition at 5 min, 100 µM: human, pH 7.4, probe bupropion (hydroxylation)
T1 construct: Pooled human liver microsomes (from sixteen individuals) were used as the source of enzymes; tissue XenoTech, LLC; host or cells: human liver microsomes, pool of sixteen donors
T1 sequence (P20813 1-491): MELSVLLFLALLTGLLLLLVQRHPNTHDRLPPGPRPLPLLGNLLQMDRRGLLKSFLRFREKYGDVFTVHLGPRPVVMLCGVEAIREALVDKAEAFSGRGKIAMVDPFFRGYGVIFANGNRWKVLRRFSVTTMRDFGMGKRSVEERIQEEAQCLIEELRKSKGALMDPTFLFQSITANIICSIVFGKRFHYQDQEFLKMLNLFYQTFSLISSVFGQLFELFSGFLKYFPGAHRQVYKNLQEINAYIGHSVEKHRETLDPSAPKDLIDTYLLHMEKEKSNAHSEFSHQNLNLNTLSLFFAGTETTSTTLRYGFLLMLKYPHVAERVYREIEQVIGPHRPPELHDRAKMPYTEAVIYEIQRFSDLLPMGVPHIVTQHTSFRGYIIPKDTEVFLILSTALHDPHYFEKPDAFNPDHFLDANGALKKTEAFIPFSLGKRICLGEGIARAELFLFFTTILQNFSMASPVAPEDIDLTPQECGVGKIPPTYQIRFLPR
Procedure: (§1) The basis for many of the following incubation conditions is described in the following references: Madan, et al., 2002,^(1) Huang, 2004,^(3) Ogilvie, et al., 2006,^(6) Pearce, et al., 1996,^(7) Tucker, et al., 2001,^(4) and Walsky and Obach, 2004.^(5) In general, incubations were conducted at approximately 37° C. in 400-μL incubation mixtures (target pH 7.4) containing high purity water, potassium phosphate buffer (50 mM), MgCl2 (3 mM), EDTA (1 mM), an NADPH-generating system [always the mixture of the following: NADP (1 mM), glucose-6-phosphate (5 mM), glucose-6-phosphate dehydrogenase (1 Unit/mL)], and marker substrate at the final concentrations indicated. Pooled human liver microsomes (from sixteen individuals) were used as the source of enzymes (Section 1.3.1.2). The concentrations of marker substrates were based on the Km and Vmax data that were determined previously (data not shown).
(§2) Due to the possibility that boceprevir may bind to microsomal protein or lipids, an attempt was made to design these experiments such that, in as many cases as possible, the microsomal protein, incubation time, and phosphate buffer concentration were 0.1 mg/mL, 5 minutes and 50 mM, respectively, for assays performed with human liver microsomes (Table 1). […] Since it is not imperative that the concentration of marker substrates be exactly equal to Km, the marker substrate concentrations were rounded up or down, as applicable, to simplify the experimental design (data not shown). […] Thus, the final incubation concentration of phenacetin was 60 μM (Table 1).
(§3) The ability of boceprevir to inhibit the CYP enzymes listed in Section 1.2.1 was investigated with a pool of sixteen individual human liver microsomal samples at the concentrations indicated in Table 1. Aliquots of the stock and/or working solutions of boceprevir were manually added to buffer mixtures containing the components described in Section 1.3.21. Incubation mixtures were prepared in bulk to obviate the need for directly pipetting very small volumes (i.e., 1 μL or less). Incubations containing no boceprevir (0 μM) contained the vehicle used to dissolve boceprevir (i.e., 1% methanol).
(§4) The Tecan liquid handling system conducted all remaining incubation steps, with the exception of the centrifugation. Aliquots of the buffer mixtures were then automatically added to 96-well plates at the appropriate locations in duplicate. Aliquots of a substrate working solution were added to the 96-well plates, prior to initiating reactions, to give the final concentrations indicated in Table 1. Reactions were initiated with the addition of an aliquot of an NADPH-generating system. Reactions were automatically terminated at approximately 5 minutes, by the addition of the appropriate internal standard (Table 5) and stop reagent; acetonitrile. Precipitated protein was removed by centrifugation (920 g for 10 minutes at 10° C.). Standards and quality control samples were similarly prepared with the addition of authentic metabolite standards.
(§5) To examine its ability to act as a time-dependent inhibitor, boceprevir (at the same concentrations used to evaluate direct inhibition) was pre-incubated at 37±1° C., in duplicate, with human liver microsomes and an NADPH-generating system for approximately 30 minutes. This pre-incubation allowed for the generation of intermediates that could inhibit human CYP enzymes. The pre-incubations were initiated with the addition of an aliquot of an NADPH-generating system. […] Reactions were automatically terminated, at approximately 5 minutes, by the addition of the appropriate internal standard (Table 5) and stop reagent; acetonitrile. Precipitated protein was removed by centrifugation (920 g for 10 minutes at 10° C.). Incubations containing no boceprevir (0 μM) and incubations that contained boceprevir but were not pre-incubated, served as negative controls.

[2] = biological target: T2, CYP2C19 (Homo sapiens, UniProt P33261); assay: CYP2C19 inhibition, S-mephenytoin 4′-hydroxylation in human liver microsomes; conditions: for Potential for Time-Dep. Inhibition: comparison with and without 30-minute pre-incubation; for inhibition at 5 min, 100 µM: human, pH 7.4, probe S-mephenytoin (4′-hydroxylation)
T2 construct: Pooled human liver microsomes (from sixteen individuals) were used as the source of enzymes; tissue XenoTech, LLC; host or cells: human liver microsomes, pool of sixteen donors
T2 sequence (P33261 whole entry): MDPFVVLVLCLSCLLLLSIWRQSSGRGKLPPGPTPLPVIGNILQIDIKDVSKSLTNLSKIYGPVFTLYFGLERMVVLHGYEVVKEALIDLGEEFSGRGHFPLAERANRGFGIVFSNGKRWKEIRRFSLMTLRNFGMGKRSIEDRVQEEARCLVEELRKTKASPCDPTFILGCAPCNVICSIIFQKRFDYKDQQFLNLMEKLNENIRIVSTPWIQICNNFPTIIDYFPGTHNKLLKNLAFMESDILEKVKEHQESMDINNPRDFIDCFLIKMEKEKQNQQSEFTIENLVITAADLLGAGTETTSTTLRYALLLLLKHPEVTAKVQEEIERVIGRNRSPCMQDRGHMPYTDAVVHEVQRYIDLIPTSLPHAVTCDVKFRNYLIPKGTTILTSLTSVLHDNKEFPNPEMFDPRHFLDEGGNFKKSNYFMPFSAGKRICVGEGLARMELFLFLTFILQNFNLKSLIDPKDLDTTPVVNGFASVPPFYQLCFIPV
Procedure: as §1, §2, §3, §4, §5

[3] = biological target: T3, CYP2E1 (Homo sapiens, UniProt P05181); assay: CYP2E1 inhibition, chlorzoxazone 6-hydroxylation in human liver microsomes; conditions: for Potential for Time-Dep. Inhibition: comparison with and without 30-minute pre-incubation
T3 construct: Pooled human liver microsomes (from sixteen individuals) were used as the source of enzymes; tissue XenoTech, LLC; host or cells: human liver microsomes, pool of sixteen donors
T3 sequence (P05181 whole entry): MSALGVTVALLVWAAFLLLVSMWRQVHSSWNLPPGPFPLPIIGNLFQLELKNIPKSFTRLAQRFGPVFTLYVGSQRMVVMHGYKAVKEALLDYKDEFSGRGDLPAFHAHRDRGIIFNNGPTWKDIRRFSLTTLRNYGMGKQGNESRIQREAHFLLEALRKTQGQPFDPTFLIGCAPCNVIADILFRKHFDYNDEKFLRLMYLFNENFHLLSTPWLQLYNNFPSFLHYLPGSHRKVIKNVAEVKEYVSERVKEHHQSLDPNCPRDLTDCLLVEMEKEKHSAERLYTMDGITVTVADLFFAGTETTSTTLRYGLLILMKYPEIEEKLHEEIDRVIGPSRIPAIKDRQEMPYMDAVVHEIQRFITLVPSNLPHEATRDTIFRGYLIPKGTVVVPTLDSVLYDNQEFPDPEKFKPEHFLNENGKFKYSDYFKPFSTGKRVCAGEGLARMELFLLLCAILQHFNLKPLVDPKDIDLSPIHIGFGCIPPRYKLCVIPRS
Procedure: as §1, §2, §3
The Tecan liquid handling system conducted all remaining incubation steps, with the exception of the centrifugation. Aliquots of the buffer mixtures were then automatically added to 96-well plates at the appropriate locations in duplicate. Aliquots of a substrate working solution were added to the 96-well plates, prior to initiating reactions, to give the final concentrations indicated in Table 1. Reactions were initiated with the addition of an aliquot of an NADPH-generating system. […]

[4] = system: CYP3A4/5; assay: CYP3A4/5 inhibition, testosterone 6β-hydroxylation in human liver microsomes; conditions: for Potential for Time-Dep. Inhibition: comparison with and without 30-minute pre-incubation; for IC50 at 5 min / inhibition at 5 min, 100 µM: human, pooled human liver microsomes, pH 7.4, probe testosterone (6β-hydroxylation)
Procedure: as §1, §2, §3, §4, §5

[5] = direct inhibition, zero-minute pre-incubation, pooled human liver microsomes
[6] = pooled human liver microsomes, direct inhibition, zero-minute pre-incubation, read-out: Max. Inhib. at 100 μM
[7] = pooled human liver microsomes, time-dependent inhibition, 30-minute pre-incubation, read-out: Maximum Inhibition at 100 μM
[8] = time-dependent inhibition, 30-minute pre-incubation

## CC(C)(C)NC(=O)NC(C(=O)N1CC2C([C@H]1C(=O)NC(CC1CCC1)C(=O)C(N)=O)C2(C)C)C(C)(C)C (stereo partly drawn) [Boceprevir, (1R,2S,5S)—N-[(2Ξ)-4-amino-1-cyclobutyl-3,4-dioxobutan-2-yl]-3-{(2S)-2-[(tert-butylcarbamoyl)amino]-3,3-dimethylbutanoyl}-6,6-dimethyl-3-azabicyclo[3.1.0]hexane-2-carboxamide]
[1]
  Potential for Time-Dep. Inhibition: little or no
[1]; listed as boceprevir
  Potential for Time-Dep. Inhibition: no discernable time-dependent inhibition
[1]; [5]
  IC50: > 100 µM
[1]; [6]
  inhibition at 5 min, 100 µM: 2.3%
[1]; [7]
  inhibition at 5 min, 100 µM: 6.9%
[1]; [8]
  IC50: > 100 µM
[2]
  Potential for Time-Dep. Inhibition: little or no
[2]; listed as boceprevir
  Potential for Time-Dep. Inhibition: no discernable time-dependent inhibition
[2]; [5]
  IC50: > 100 µM
[2]; [6]
  inhibition at 5 min, 100 µM: 25%
[2]; [7]
  inhibition at 5 min, 100 µM: 14%
[2]; [8]
  IC50: > 100 µM
[3]
  Potential for Time-Dep. Inhibition: little or no
[3]; listed as boceprevir
  Potential for Time-Dep. Inhibition: no discernable time-dependent inhibition
[3]; [5]
  IC50: > 100 µM
[3]; [8]
  IC50: > 100 µM
[4]
  Potential for Time-Dep. Inhibition: yes^c
[4]; listed as boceprevir
  Potential for Time-Dep. Inhibition: caused time-dependent inhibition
[4]; direct inhibition, zero-minute pre-incubation
  IC50 at 5 min: > 100 µM
[4]; direct inhibition, zero-minute pre-incubation, read-out: Max. Inhib. at 100 μM
  inhibition at 5 min, 100 µM: 41%
[4]; [8]
  IC50 at 5 min: 2.3 µM
[4]; time-dependent inhibition, 30-minute pre-incubation, read-out: Maximum Inhibition at 100 μM
  inhibition at 5 min, 100 µM: 95%
